Experimental data reported in patent US20240025891A1 (Celgene Corporation, priority 2020, published 2024).

Tested on: Dirofilaria immitis microfilariae and 4th stage larvae (L4)
Assay: Heartworm screen Dirofilaria immitis (DiMF and DiL4 assays)
Type: cell-based
Settings: read-out: D. immitis Act class
Procedure: Heartworm Screen Dirofilaria immitis (D. immitis)
(§1) Dirofilaria immitis, Microfilaria (DiMF) Assay. Compounds were dissolved and serially diluted in DMSO. Aliquots were spotted to the empty wells of assay plates. Media and microfilariae of Dirofilaria immitis were added to each well to dilute the test compounds to the desired concentrations. Assay plates were incubated for approximately 72 hours, and the larvae in each well were observed microscopically for drug effect. Microfilariae in each well were assessed subjectively for survival or paralysis, and results were reported as Minimum Effective Dose (MED).
as §1, with “L4 stage (DiL4)” for “Microfilaria (DiMF)”, “4th stage larvae (L4)” for “microfilariae”, “Larvae” for “Microfilariae”
Active and selective (DiL4 vs. DiMF potency) example compounds were subsequently evaluated in heartworm positive dog studies to correlate the in vitro selectivity profile with in vivo effects on circulating microfilariae.

Compared with `Cc1ccnc(Nc2nc(-c3ccccn3)c(CN3CCC3)s2)c1` [Example 183, 5-(azetidin-1-ylmethyl)-N-(4-methylpyridin-2-yl)-4-(pyridin-2-yl)thiazol-2-amine], `Cc1ccnc(Nc2nc(-c3ccccn3)c(C)s2)c1` [Example 132, 5-methyl-N-(4-methyl-pyridin-2-yl)-4-(pyridin-2-yl)thiazol-2-amine] is lower in IC50: 0.5 to 5 µM for the first, 0.2 to 0.5 µM for the second. The second is the more potent here.

Compared with `CC(=O)N(C)c1cc(C(F)(F)F)cnc1Nc1nc(-c2ccc(OC(C)C)cn2)cs1` [Example 93, N-(2-(4-(5-isopropoxypyridin-2-yl)thiazol-2-ylamino)-5-(trifluoromethyl)pyridin-3-yl)-N-methylacetamide], `CC(=O)N(C)c1cc(C(F)(F)F)cnc1Nc1nc(-c2cc(OC(C)C)ccn2)cs1` [Example 82, N-(2-(4-(4-isopropoxypyridin-2-yl)thiazol-2-ylamino)-5-(trifluoromethyl)pyridin-3-yl)-N-methylacetamide] is lower in IC50: 0.5 to 5 µM for the first, 0.2 to 0.5 µM for the second.

`c1ccc(-c2ccnc(Nc3nc(-c4ccccn4)cs3)c2)cc1` [Example 126, N-(4-phenylpyridin-2-yl)-4-(pyridin-2-yl)thiazol-2-amine] and `c1ccc(-c2ccc(Nc3nc(-c4ccccn4)cs3)nc2)cc1` [Example 221, N-(5-phenylpyridin-2-yl)-4-(pyridin-2-yl)thiazol-2-amine] cannot be ordered by IC50: less than 0.2 µM for the first, less than 0.2 µM for the second.

`c1ccc(-c2csc(Nc3cc(-c4ncccn4)ccn3)n2)nc1` [Example 174, 4-(pyridin-2-yl)-N-(4-(pyrimidin-2-yl)pyridin-2-yl)thiazol-2-amine] and `c1ccc(-c2csc(Nc3cc(-c4cnccn4)ccn3)n2)nc1` [Example 173, N-(4-(pyrazin-2-yl)pyridin-2-yl)-4-(pyridin-2-yl)thiazol-2-amine] fall in the same range of IC50: 0.2 to 0.5 µM for the first, 0.2 to 0.5 µM for the second.

`CCc1cnc(Nc2nc(-c3ccccn3)cs2)cc1C(F)(F)F` [Example 130, N-(5-ethyl-4-(trifluoro-methyl)pyridin-2-yl)-4-(pyridin-2-yl)thiazol-2-amine] and `CC(C)c1cnc(Nc2nc(-c3ccccn3)cs2)cc1C(F)(F)F` [Example 127, N-(5-isopropyl-4-(trifluoro-methyl)pyridin-2-yl)-4-(pyridin-2-yl)thiazol-2-amine] cannot be ordered by IC50: less than 0.2 µM for the first, less than 0.2 µM for the second.

`CCOc1cccc(-c2csc(Nc3ncccc3C)n2)n1` [Example 71] and `CCOc1cccc(-c2csc(Nc3cc(C)ccn3)n2)n1` [Example 78, 4-(6-ethoxypyridin-2-yl)-N-(4-methylpyridin-2-yl)thiazol-2-amine] fall in the same range of IC50: 0.5 to 5 µM for the first, 0.5 to 5 µM for the second.

First: CCOc1ccc(-c2csc(Nc3ccc(C)cn3)n2)nc1 [Example 81, 4-(5-ethoxypyridin-2-yl)-N-(5-methylpyridin-2-yl)thiazol-2-amine]
Second: CCOc1ccc(-c2csc(Nc3ccc(Cl)cn3)n2)nc1 [Example 85, N-(5-chloropyridin-2-yl)-4-(5-ethoxypyridin-2-yl)thiazol-2-amine]
The IC50 of the first is lower: less than 0.2 µM for the first, 0.5 to 5 µM for the second.

First: Cc1ccc(-c2csc(Nc3cc(C)ccn3)n2)nc1 [Example 1, N-(4-Methylpyridin-2-yl)-4-(5-methylpyridin-2-yl)thiazol-2-amine]
Second: Cc1ccnc(Nc2nc(-c3ccc(Cl)cn3)cs2)c1 [Example 89, 4-(5-chloropyridin-2-yl)-N-(4-methylpyridin-2-yl)thiazol-2-amine]
The IC50 of the first is lower: less than 0.2 µM for the first, 0.2 to 0.5 µM for the second. The first is the more potent here.

`c1ccc(-c2csc(Nc3ccc(C4CCCC4)cn3)n2)nc1` [Example 138, N-(5-cyclopentyl-pyridin-2-yl)-4-(pyridin-2-yl)thiazol-2-amine] and `c1ccc(-c2csc(Nc3cc(C4CCC4)ccn3)n2)nc1` [Example 168, N-(4-cyclobutyl-pyridin-2-yl)-4-(pyridin-2-yl)thiazol-2-amine] cannot be ordered by IC50: less than 0.2 µM for the first, less than 0.2 µM for the second.

`c1ccc(-c2csc(Nc3cc(-c4cccnn4)ccn3)n2)nc1` [Example 169, N-(4-(pyridazin-3-yl)pyridin-2-yl)-4-(pyridin-2-yl)thiazol-2-amine] and `CNC(=O)c1ccc(-c2ccnc(Nc3nc(-c4ccccn4)cs3)c2)cc1` [Example 171, N-methyl-4-(2-(4-(pyridin-2-yl)thiazol-2-ylamino)pyridin-4-yl)benzamide] fall in the same range of IC50: 0.5 to 5 µM for the first, 0.5 to 5 µM for the second.

`Cc1cc(C(F)(F)F)cnc1Nc1nc(-c2cc3c(cn2)N(C)CC3)cs1` [Example 97, 4-(1-methyl-2,3-dihydro-1H-pyrrolo[2,3-c]pyridin-5-yl)-N-(3-methyl-5-(trifluoromethyl)pyridin-2-yl)thiazol-2-amine] and `CCOc1ccc(-c2csc(Nc3cc(C)ccn3)n2)nc1` [Example 91, 4-(5-ethoxypyridin-2-yl)-N-(4-methylpyridin-2-yl)thiazol-2-amine] cannot be ordered by IC50: less than 0.2 µM for the first, less than 0.2 µM for the second.

`Cc1ccnc(Nc2nc(-c3ncccc3-c3ccccc3)cs2)c1` [Example 103, N-(4-methylpyridin-2-yl)-4-(3-phenylpyridin-2-yl)thiazol-2-amine] and `CCCCc1ccnc(Nc2nc(-c3ccccn3)cs2)c1` [Example 167, N-(4-butylpyridin-2-yl)-4-(pyridin-2-yl)thiazol-2-amine] cannot be ordered by IC50: less than 0.2 µM for the first, less than 0.2 µM for the second.

`CC(C)c1ccc(Nc2nc(-c3ccccn3)cs2)nc1` [Example 219, N-(5-isopropylpyridin-2-yl)-4-(pyridin-2-yl)thiazol-2-amine] and `c1ccc(-c2csc(Nc3cc(C4CC4)ccn3)n2)nc1` [Example 176, N-(4-cyclopropyl-pyridin-2-yl)-4-(pyridin-2-yl)thiazol-2-amine] cannot be ordered by IC50: less than 0.2 µM for the first, less than 0.2 µM for the second.

Compared with `CCOc1ccc(-c2csc(Nc3cccc(C)n3)n2)nc1` [Example 90, 4-(5-ethoxypyridin-2-yl)-N-(6-methylpyridin-2-yl)thiazol-2-amine], `CCOc1ccc(Nc2nc(-c3ccc(OCC)cn3)cs2)nc1` [Example 87, N,4-bis(5-ethoxypyridin-2-yl)thiazol-2-amine] is lower in IC50: 0.5 to 5 µM for the first, less than 0.2 µM for the second. The second is the more potent here.

Compound `Cc1sc(Nc2ccccn2)nc1-c1ccccn1` [Example 227, 5-methyl-N,4-di(pyridin-2-yl)thiazol-2-amine] has an IC50 of less than 0.2 µM.
